The values below are quoted from earlier work in patent publication US10668058B2, “Device and method for delivery of a medicament” (Philip Morris Products S.A., priority 2007, dated 2020).

Each structure is given as a SMILES string.

The conditions of this series: 25° C.

`CN1CCCC1c1cccnc1` (stereo not shown) [Nicotine only, Nicotine]: the vapor pressure was 0.04 mm Hg.
